Test results from ChEMBL document CHEMBL1201862, “PubChem BioAssay data set” (2004).
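Test compounds were applied to cells in 96-well plates for 48 hours at 5 doses. At the GI50, growth is halved.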 Active and inactive are the calls of the source. Rule as the data show it: active = GI50 up to about 1.1 µM and inactive = higher.

How the values were obtained:
Assay in all cases: NCI-60 cell line screen, 48 h
[1] = system: A549
[2] = system: SK-OV-3
[3] = system: HOP-62
[4] = system: OVCAR-4
[5] = system: MCF7
[6] = system: EKVX
[7] = system: BT-549
[8] = system: RXF 393
[9] = system: HOP-92
[10] = system: HL-60
[11] = system: MOLT-4
[12] = system: SNB-75
[13] = system: NCI/ADR-RES
[14] = system: OVCAR-8
[15] = system: NCI-H460
[16] = system: CAKI-1
[17] = system: CCRF-CEM
[18] = system: LOX IMVI
[19] = system: TK-10
[20] = system: OVCAR-3
[21] = system: OVCAR-5
[22] = system: PC-3
[23] = system: Hs-578T
[24] = system: SF-539
[25] = system: SN12C
[26] = system: HT-29
[27] = system: K562
[28] = system: SK-MEL-2
[29] = system: A498
[30] = system: KM12
[31] = system: IGROV-1
[32] = system: HCT-116
[33] = system: SW-620
[34] = system: HCC 2998
[35] = system: SF-295
[36] = system: SK-MEL-28
[37] = system: HCT-15
[38] = system: Malme-3M
[39] = system: NCI-H23
[40] = system: SR
[41] = system: 786-0
[42] = system: U-251
[43] = system: ACHN
[44] = system: MDA-N
[45] = system: UACC-257
[46] = system: SNB-19
[47] = system: SK-MEL-5
[48] = system: UACC-62
[49] = system: COLO 205
[50] = system: UO-31
[51] = system: M14
[52] = system: MDA-MB-231
[53] = system: NCI-H226
[54] = system: SF-268
[55] = system: MDA-MB-435
[56] = system: RPMI-8226
[57] = system: T47D
[58] = system: DU-145
[59] = system: NCI-H522

For `COC(=O)/C=C(\C)CC/C=C(\C)CCC1OC1(C)C` (stereo unspecified), the GI50 [1] was 12.9 µM (inactive), the GI50 [2] was 23.7 µM (inactive) and the GI50 [3] was 15.8 µM (inactive). For the same compound, the GI50 [4] was 11.8 µM (inactive), the GI50 [5] was 11.5 µM (inactive) and the GI50 [6] was 13 µM (inactive). For the same compound, the GI50 [7] was 11.5 µM (inactive), the GI50 [8] was 13.3 µM (inactive) and the GI50 [9] was 11.9 µM (inactive). The GI50 [10] was 1.87 µM (inactive), the GI50 [11] was 8.17 µM (inactive) and the GI50 [12] was 17.4 µM (inactive). The GI50 [13] was 13.9 µM (inactive), the GI50 [14] was 12.9 µM (inactive) and the GI50 [15] was 13.2 µM (inactive). For the same compound, the GI50 [16] was 11.7 µM (inactive), the GI50 [17] was 4.65 µM (inactive) and the GI50 [18] was 2.53 µM (inactive). For the same compound, the GI50 [19] was 12.4 µM (inactive), the GI50 [20] was 11.7 µM (inactive) and the GI50 [21] was 13.6 µM (inactive). For the same compound, the GI50 [22] was 8.36 µM (inactive), the GI50 [23] was 16.1 µM (inactive) and the GI50 [24] was 13.5 µM (inactive). For the same compound, the GI50 [25] was 10.2 µM (inactive), the GI50 [26] was 14 µM (inactive) and the GI50 [27] was 3.11 µM (inactive). For the same compound, the GI50 [28] was 10.9 µM (inactive), the GI50 [29] was 14.5 µM (inactive) and the GI50 [30] was 9.48 µM (inactive). For the same compound, the GI50 [31] was 12.2 µM (inactive), the GI50 [32] was 12.5 µM (inactive) and the GI50 [33] was 13.6 µM (inactive). The GI50 [34] was 9.66 µM (inactive), the GI50 [35] was 11.3 µM (inactive) and the GI50 [36] was 12.3 µM (inactive). For the same compound, the GI50 [37] was 11.8 µM, the GI50 [38] was 14.6 µM (inactive) and the GI50 [39] was 13.2 µM (inactive). The GI50 [40] was 8.79 µM (inactive), the GI50 [41] was 12.6 µM (inactive) and the GI50 [42] was 11.8 µM (inactive). For the same compound, the GI50 [43] was 13 µM (inactive), the GI50 [44] was 11.7 µM (inactive) and the GI50 [45] was 12.5 µM (inactive). For the same compound, the GI50 [46] was 44.7 µM (inactive), the GI50 [47] was 11.4 µM (inactive) and the GI50 [48] was 10.1 µM (inactive). The GI50 [49] was 15.5 µM (inactive), the GI50 [50] was 10.7 µM (inactive) and the GI50 [51] was 12.6 µM (inactive). The GI50 [52] was 12.1 µM (inactive) and the GI50 [53] was 12.1 µM (inactive).
For `CC12CCC(C(Nc3cc(C(F)(F)F)cc(C(F)(F)F)c3)C1=O)C2(C)C` (stereo unspecified), the GI50 [1] was > 100 µM (inactive), the GI50 [2] was > 100 µM (inactive) and the GI50 [3] was > 100 µM (inactive). For the same compound, the GI50 [4] was > 100 µM (inactive), the GI50 [5] was > 100 µM (inactive) and the GI50 [6] was > 100 µM (inactive). The GI50 [7] was > 100 µM (inactive), the GI50 [54] was > 100 µM (inactive) and the GI50 [11] was > 100 µM (inactive). For the same compound, the GI50 [13] was > 100 µM (inactive), the GI50 [14] was > 100 µM (inactive) and the GI50 [15] was > 100 µM (inactive). The GI50 [55] was > 100 µM (inactive), the GI50 [16] was > 100 µM (inactive) and the GI50 [18] was > 100 µM (inactive). For the same compound, the GI50 [56] was > 100 µM (inactive), the GI50 [19] was > 100 µM (inactive) and the GI50 [20] was > 100 µM (inactive). For the same compound, the GI50 [21] was > 100 µM (inactive), the GI50 [22] was > 100 µM (inactive) and the GI50 [24] was > 100 µM (inactive). The GI50 [26] was > 100 µM (inactive), the GI50 [27] was > 100 µM (inactive) and the GI50 [28] was > 100 µM (inactive). For the same compound, the GI50 [29] was > 100 µM (inactive), the GI50 [30] was > 100 µM (inactive) and the GI50 [57] was > 100 µM (inactive). The GI50 [31] was > 100 µM (inactive), the GI50 [32] was > 100 µM (inactive) and the GI50 [33] was > 100 µM (inactive). For the same compound, the GI50 [34] was > 100 µM (inactive), the GI50 [35] was > 100 µM (inactive) and the GI50 [36] was > 100 µM (inactive). For the same compound, the GI50 [37] was greater than 100 µM, the GI50 [58] was > 100 µM (inactive) and the GI50 [38] was > 100 µM (inactive). The GI50 [39] was > 100 µM (inactive), the GI50 [40] was > 100 µM (inactive) and the GI50 [41] was > 100 µM (inactive). The GI50 [42] was > 100 µM (inactive), the GI50 [43] was > 100 µM (inactive) and the GI50 [45] was > 100 µM (inactive). The GI50 [46] was > 100 µM (inactive), the GI50 [47] was > 100 µM (inactive) and the GI50 [48] was > 100 µM (inactive). The GI50 [49] was > 100 µM (inactive), the GI50 [50] was > 100 µM (inactive) and the GI50 [51] was > 100 µM (inactive). For the same compound, the GI50 [52] was > 100 µM (inactive) and the GI50 [53] was > 100 µM (inactive).
In the case of `BrP(NC1CCCCCC1)(c1ccccc1)(c1ccccc1)c1ccccc1`, the GI50 [1] is reported as 5.94 µM (inactive), the GI50 [3] is reported as 8.79 µM (inactive) and the GI50 [5] is reported as 2.5 µM (inactive). The GI50 [6] was 7.14 µM (inactive), the GI50 [7] was 3.26 µM (inactive) and the GI50 [8] was 2.2 µM (inactive). The GI50 [10] was 1.9 µM (inactive), the GI50 [54] was 2.88 µM (inactive) and the GI50 [13] was 44 µM (inactive). The GI50 [14] was 2.9 µM (inactive), the GI50 [15] was 1.33 µM (inactive) and the GI50 [55] was 2.15 µM (inactive). The GI50 [16] was 3.98 µM (inactive), the GI50 [17] was 2.97 µM (inactive) and the GI50 [18] was 2.36 µM (inactive). The GI50 [56] was 1.03 µM (active), the GI50 [19] was 6.58 µM (inactive) and the GI50 [20] was 3.38 µM (inactive). The GI50 [21] was 18 µM (inactive), the GI50 [22] was 1.56 µM (inactive) and the GI50 [23] was 3 µM (inactive). The GI50 [24] was 14.1 µM (inactive), the GI50 [25] was 5.06 µM (inactive) and the GI50 [26] was 2.1 µM (inactive). The GI50 [27] was 2.74 µM (inactive), the GI50 [59] was 2.23 µM (inactive) and the GI50 [28] was 2.44 µM (inactive). For the same compound, the GI50 [29] was 0.986 µM (active), the GI50 [30] was 0.873 µM (active) and the GI50 [57] was 1.93 µM (inactive). For the same compound, the GI50 [31] was 3.96 µM (inactive), the GI50 [32] was 4.74 µM (inactive) and the GI50 [33] was 3.09 µM (inactive). The GI50 [34] was 2.04 µM (inactive), the GI50 [35] was 3.03 µM (inactive) and the GI50 [36] was 2.4 µM (inactive). For the same compound, the GI50 [37] was 18.8 µM, the GI50 [58] was 8.26 µM (inactive) and the GI50 [38] was 2.93 µM (inactive). For the same compound, the GI50 [39] was 5.12 µM (inactive), the GI50 [40] was 3.88 µM (inactive) and the GI50 [41] was 7.53 µM (inactive). The GI50 [42] was 3.55 µM (inactive), the GI50 [43] was 3.27 µM (inactive) and the GI50 [45] was 1.86 µM (inactive). The GI50 [46] was 4.66 µM (inactive), the GI50 [47] was 1.59 µM (inactive) and the GI50 [48] was 3.03 µM (inactive). The GI50 [49] was 1.78 µM (inactive), the GI50 [50] was 4.25 µM (inactive) and the GI50 [51] was 12.4 µM (inactive). The GI50 [52] was 3.56 µM (inactive) and the GI50 [53] was 13.5 µM (inactive).
